The values below come from publication PMC8750965, “The Isoquinoline-Sulfonamide Compound H-1337 Attenuates SU5416/Hypoxia-Induced Pulmonary Arterial Hypertension in Rats” (Cells, 2021).

Test [1] concerns phosphorylation of MLC in hPASMCs. In words: Western blot of MLC phosphorylation in ET-1-stimulated hPASMCs. The settings on record: then ET-1 0.1 µM 1 h.
Protocol: Before stimulation, 2 × 10^5 hPASMCs were cultured with serum-starved medium (Humedia-SB containing 1% FBS and antibiotics [Kurabo]), followed by stimulation with serum-starved medium containing 0.1 µM ET-1 or 10 ng/mL recombinant PDGF and treatment with different reagents. The isolated proteins were separated and analyzed by western blotting.
proteins were then isolated with RIPA buffer (25 mM Tris-HCl [pH 7.6], 150 mM NaCl,
1% NP-40, 1% sodium deoxycholate, and 0.1% sodium dodecyl sulfate) containing prote-
ase inhibitors (Protease Inhibitor Cocktail; Nacalai Tesque, Kyoto, Japan) and phosphatase
inhibitors (PhosSTOP; Roche, Basel, Switzerland). Proteins from each sample were sepa-
rated by sodium dodecyl sulfate polyacrylamide gel electrophoresis and transferred onto
polyvinylidene difluoride (PVDF) membranes. The membranes were then blocked with
5% bovine serum albumin diluted in Tris-buffered solution containing 0.05% Tween 20
(TBS-T) for 1 hour at room temperature. The blocked membranes were incubated with
primary antibodies at 4°C overnight, followed by washing with TBS-T. The membranes
were then incubated with a secondary antibody for 1 h at room temperature. Bands were
visualized by a chemiluminescence reaction using Pierce ECL Western Blotting (Thermo
Fisher Scientific, Waltham, MA, CSA) and LAS-4000 (Fuji Film, Tokyo, Japan).
tein expression was normalized to that of -actin.
The subject of test [2] is phosphorylated MYPT1 in hPASMCs. The experiment in a line: Western blot of MYPT1 phosphorylation (Thr696) in ET-1-stimulated hPASMCs. It counts as cell-based, human. The note with it: compound 1 hour, then ET-1 0.1 µM 1 hour, ET-1 did not increase p-MYPT1. In general terms: A western blot detects proteins with antibodies after separation by electrophoresis.
The subject of test [3] is phosphorylation of mTOR in hPASMCs. In words: Western blot of mTOR phosphorylation in PDGF-stimulated hPASMCs. The note with it: concentration not given, 1 h, then PDGF 10 ng/mL 1 h.
The subject of another test is hPASMCs. In words: Cell proliferation assay (Cell Counting Kit-8) of PDGF-stimulated hPASMCs. The note with it: 0.1–10 µM compound, PDGF 10 ng/mL, 72 h. Background: Formazan colour is commonly taken as a measure of viable cells.

Regarding `COc1ccccc1Oc1c(NS(=O)(=O)c2ccc(C(C)(C)C)cc2)nc(-c2ncccn2)nc1OCCO` [Bosentan], in test [1] (concentration not given, 1 h), the “Phosphorylation of MLC (p-MLC/total MLC)” value is “the difference did not reach significant levels”. Besides, in test [2], the “Ratio of p-MYPT1 (Thr696) to total MYPT1, difference versus ET-1 without compound” value is listed as “insignificant”.

Regarding `O=S(=O)(c1cccc2cnccc12)N1CCCNCC1` [Fasudil], in test [1] (10 μM compound 1 h), the “Phosphorylation of MLC (p-MLC/total MLC)” value is given as “significantly decreased”. Moreover, the “Phosphorylation of mTOR (phospho-/total mTOR)” value in test [3] is given as “did not have a suppressive effect”. For the same compound, in the test on hPASMCs, the “Proliferation of hPASMCs induced by PDGF” value is given as “observed only at the highest concentration”.

`O=c1cc(N2CCOCC2)oc2c(-c3ccccc3)cccc12` [LY294002]: the “Phosphorylation of mTOR (phospho-/total mTOR)” value in test [3] is recorded as “significantly reduced”. Also, the “Proliferation of hPASMCs induced by PDGF” value with hPASMCs was “suppressed the proliferation of hPASMCs induced by stimulation with PDGF in a concentration-dependent manner”.
